Data as given in ChEMBL document CHEMBL5465560, “Selectivity Literature for EUbOPEN Chemogenomic Library” (2024).
Each block holds one molecule with its values, some of them ahead of it.

Tests used:
[1] = molecular target: Phosphorylase b kinase gamma catalytic chain, skeletal muscle/heart isoform (Homo sapiens) (UniProt Q16816); experiment: Selectivity interaction (KinomeScan (DiscoverX)) EUB0001049a PHKG1; details: at 1 µM
[2] = molecular target: Cyclin-dependent kinase 10 (Homo sapiens) (UniProt Q15131); experiment: Selectivity interaction (ActivX KiNativ screen (kinase selectivity in THP-1 cell lysates)) EUB0000639a CDK10; format: subcellular; details: lysate
Cyclin-dependent kinase 10 (Homo sapiens), sequence (Q15131 whole entry): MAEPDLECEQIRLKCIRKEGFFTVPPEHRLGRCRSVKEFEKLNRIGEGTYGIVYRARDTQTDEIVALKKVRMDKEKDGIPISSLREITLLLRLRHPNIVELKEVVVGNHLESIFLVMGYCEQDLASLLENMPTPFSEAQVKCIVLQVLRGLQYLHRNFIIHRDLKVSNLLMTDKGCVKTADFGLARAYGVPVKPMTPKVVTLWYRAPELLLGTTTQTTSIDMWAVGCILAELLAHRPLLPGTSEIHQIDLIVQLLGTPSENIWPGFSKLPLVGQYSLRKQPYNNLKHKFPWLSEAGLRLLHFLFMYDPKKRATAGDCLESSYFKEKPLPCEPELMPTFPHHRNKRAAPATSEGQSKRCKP

[3] = molecular target: Serine/threonine-protein kinase SIK1 (Homo sapiens) (UniProt P57059); experiment: Selectivity interaction (Kinase panel (Carna Biosciences)) EUB0001542aTs SIK1; details: at 1 µM
Serine/threonine-protein kinase SIK1 (Homo sapiens), sequence (P57059 whole entry): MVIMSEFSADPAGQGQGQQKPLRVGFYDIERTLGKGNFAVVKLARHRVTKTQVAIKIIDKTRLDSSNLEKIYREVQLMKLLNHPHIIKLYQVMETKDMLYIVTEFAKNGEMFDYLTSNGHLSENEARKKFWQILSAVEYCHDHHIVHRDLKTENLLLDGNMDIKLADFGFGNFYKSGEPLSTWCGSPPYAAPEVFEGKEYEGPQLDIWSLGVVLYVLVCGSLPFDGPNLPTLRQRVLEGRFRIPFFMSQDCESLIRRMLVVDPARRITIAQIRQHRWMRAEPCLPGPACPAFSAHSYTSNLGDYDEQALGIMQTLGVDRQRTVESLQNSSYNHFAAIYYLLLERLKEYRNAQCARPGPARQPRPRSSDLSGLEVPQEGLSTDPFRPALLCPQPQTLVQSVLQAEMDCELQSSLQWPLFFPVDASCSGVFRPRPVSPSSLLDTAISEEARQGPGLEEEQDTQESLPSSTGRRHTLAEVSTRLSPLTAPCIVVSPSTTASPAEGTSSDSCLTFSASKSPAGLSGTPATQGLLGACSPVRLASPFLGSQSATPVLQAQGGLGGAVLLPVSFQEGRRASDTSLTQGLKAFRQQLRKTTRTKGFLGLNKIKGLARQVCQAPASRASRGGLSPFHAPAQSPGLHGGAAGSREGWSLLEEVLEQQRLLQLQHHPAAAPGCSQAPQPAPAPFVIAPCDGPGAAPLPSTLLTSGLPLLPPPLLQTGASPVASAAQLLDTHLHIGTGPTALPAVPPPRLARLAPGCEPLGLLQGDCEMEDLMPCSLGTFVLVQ

[4] = molecular target: T1, cGMP-dependent protein kinase 2 (Homo sapiens) (UniProt Q13237); details: at 10 µM
T1 sequence (whole entry): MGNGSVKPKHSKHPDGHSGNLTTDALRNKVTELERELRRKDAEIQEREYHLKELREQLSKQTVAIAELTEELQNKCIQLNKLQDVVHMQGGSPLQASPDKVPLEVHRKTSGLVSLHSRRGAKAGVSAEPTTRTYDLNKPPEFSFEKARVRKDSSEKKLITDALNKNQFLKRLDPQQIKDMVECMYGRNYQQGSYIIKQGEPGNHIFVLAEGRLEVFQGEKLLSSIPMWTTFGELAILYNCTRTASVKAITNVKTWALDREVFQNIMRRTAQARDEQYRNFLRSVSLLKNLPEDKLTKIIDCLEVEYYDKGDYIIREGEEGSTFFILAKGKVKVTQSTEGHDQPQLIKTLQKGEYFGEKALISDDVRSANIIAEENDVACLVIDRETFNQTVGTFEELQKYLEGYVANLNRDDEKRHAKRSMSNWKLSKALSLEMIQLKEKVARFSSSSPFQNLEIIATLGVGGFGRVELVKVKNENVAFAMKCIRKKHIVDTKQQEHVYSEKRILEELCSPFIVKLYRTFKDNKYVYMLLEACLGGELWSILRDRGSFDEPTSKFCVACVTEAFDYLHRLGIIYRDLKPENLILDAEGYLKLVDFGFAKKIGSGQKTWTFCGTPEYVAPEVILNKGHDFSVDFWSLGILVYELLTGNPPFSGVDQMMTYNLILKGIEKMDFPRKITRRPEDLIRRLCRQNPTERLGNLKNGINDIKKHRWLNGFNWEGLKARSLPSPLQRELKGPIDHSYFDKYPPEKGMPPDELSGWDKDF

[5] = molecular target: T2, Mitogen-activated protein kinase kinase kinase 13 (Homo sapiens) (UniProt O43283); experiment: Selectivity interaction (KinomeScan (DiscoverX)) EUB0000595a MAP3K13; details: at 10 µM
T2 sequence (whole entry): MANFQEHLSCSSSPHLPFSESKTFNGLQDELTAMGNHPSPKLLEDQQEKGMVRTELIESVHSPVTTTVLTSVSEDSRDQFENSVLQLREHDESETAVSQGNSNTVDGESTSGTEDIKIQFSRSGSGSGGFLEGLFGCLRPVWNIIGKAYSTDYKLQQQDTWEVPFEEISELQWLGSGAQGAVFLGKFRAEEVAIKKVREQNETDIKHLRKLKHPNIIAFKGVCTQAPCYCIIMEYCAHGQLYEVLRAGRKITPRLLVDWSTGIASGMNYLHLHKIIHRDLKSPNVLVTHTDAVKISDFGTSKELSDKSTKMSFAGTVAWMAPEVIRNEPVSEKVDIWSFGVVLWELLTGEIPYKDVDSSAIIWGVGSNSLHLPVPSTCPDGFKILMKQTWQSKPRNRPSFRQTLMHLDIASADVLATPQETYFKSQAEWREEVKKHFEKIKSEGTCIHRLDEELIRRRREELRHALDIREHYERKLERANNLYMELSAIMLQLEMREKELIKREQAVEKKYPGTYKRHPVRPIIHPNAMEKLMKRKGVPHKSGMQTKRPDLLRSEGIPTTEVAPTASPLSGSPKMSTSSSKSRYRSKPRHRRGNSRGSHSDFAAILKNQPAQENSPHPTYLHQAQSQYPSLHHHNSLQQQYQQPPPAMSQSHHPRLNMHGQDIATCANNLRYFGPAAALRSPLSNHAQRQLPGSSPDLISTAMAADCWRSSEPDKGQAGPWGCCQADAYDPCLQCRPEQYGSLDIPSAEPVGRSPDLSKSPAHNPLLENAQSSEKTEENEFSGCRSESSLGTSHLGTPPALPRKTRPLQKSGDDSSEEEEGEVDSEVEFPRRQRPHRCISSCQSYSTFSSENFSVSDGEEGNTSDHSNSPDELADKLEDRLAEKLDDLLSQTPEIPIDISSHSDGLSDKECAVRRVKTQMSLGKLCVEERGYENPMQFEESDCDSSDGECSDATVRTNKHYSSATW

[6] = molecular target: Alpha-1D adrenergic receptor (Homo sapiens) (UniProt P25100); experiment: Selectivity interaction (GPCR panel (PDSP screen)) EUB0001079a ADRA1D; details: at 10 µM
Alpha-1D adrenergic receptor (Homo sapiens), sequence (P25100 whole entry): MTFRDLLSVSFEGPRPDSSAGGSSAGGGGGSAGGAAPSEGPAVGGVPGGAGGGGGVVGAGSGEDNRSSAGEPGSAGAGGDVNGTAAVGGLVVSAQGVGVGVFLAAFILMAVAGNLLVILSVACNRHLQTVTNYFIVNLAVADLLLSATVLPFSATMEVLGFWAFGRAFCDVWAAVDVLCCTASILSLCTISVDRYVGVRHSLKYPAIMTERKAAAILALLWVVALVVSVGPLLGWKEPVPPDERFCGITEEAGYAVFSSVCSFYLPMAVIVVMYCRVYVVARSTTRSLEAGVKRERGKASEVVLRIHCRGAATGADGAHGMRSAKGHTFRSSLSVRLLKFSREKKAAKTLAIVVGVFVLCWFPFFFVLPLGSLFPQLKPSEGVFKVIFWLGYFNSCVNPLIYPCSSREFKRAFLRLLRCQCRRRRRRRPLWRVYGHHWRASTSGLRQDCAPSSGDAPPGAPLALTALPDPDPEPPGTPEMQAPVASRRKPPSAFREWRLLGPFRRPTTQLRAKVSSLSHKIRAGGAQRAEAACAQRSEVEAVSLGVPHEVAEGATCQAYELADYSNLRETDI

[7] = molecular target: T3, Dual specificity tyrosine-phosphorylation-regulated kinase 2 (Homo sapiens) (UniProt Q92630); experiment: Selectivity interaction (KinomeScan (DiscoverX)) EUB0000607a DYRK2; details: at 10 µM
T3 sequence (whole entry): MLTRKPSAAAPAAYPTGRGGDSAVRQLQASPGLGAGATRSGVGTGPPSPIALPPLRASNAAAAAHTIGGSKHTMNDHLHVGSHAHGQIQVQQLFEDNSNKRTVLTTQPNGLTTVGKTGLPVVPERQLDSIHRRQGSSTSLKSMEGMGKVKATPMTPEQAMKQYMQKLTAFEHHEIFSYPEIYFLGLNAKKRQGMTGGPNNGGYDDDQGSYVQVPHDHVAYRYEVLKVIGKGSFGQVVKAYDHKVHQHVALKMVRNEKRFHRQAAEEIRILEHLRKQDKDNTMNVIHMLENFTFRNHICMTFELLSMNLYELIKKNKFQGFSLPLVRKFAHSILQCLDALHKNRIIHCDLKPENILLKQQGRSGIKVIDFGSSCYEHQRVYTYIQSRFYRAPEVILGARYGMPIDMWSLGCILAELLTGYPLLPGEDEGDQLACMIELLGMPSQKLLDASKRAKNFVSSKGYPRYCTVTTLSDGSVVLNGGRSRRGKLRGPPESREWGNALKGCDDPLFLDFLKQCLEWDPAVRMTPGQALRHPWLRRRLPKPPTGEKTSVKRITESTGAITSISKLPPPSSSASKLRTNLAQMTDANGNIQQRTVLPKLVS

[8] = molecular target: Rho-associated protein kinase 2 (Homo sapiens, UniProt O75116); experiment: Selectivity interaction (SelectScreen profiling (Invitrogen)) EUB0000607a ROCK2; details: at 2 µM
Rho-associated protein kinase 2, sequence (O75116 whole entry, looked up): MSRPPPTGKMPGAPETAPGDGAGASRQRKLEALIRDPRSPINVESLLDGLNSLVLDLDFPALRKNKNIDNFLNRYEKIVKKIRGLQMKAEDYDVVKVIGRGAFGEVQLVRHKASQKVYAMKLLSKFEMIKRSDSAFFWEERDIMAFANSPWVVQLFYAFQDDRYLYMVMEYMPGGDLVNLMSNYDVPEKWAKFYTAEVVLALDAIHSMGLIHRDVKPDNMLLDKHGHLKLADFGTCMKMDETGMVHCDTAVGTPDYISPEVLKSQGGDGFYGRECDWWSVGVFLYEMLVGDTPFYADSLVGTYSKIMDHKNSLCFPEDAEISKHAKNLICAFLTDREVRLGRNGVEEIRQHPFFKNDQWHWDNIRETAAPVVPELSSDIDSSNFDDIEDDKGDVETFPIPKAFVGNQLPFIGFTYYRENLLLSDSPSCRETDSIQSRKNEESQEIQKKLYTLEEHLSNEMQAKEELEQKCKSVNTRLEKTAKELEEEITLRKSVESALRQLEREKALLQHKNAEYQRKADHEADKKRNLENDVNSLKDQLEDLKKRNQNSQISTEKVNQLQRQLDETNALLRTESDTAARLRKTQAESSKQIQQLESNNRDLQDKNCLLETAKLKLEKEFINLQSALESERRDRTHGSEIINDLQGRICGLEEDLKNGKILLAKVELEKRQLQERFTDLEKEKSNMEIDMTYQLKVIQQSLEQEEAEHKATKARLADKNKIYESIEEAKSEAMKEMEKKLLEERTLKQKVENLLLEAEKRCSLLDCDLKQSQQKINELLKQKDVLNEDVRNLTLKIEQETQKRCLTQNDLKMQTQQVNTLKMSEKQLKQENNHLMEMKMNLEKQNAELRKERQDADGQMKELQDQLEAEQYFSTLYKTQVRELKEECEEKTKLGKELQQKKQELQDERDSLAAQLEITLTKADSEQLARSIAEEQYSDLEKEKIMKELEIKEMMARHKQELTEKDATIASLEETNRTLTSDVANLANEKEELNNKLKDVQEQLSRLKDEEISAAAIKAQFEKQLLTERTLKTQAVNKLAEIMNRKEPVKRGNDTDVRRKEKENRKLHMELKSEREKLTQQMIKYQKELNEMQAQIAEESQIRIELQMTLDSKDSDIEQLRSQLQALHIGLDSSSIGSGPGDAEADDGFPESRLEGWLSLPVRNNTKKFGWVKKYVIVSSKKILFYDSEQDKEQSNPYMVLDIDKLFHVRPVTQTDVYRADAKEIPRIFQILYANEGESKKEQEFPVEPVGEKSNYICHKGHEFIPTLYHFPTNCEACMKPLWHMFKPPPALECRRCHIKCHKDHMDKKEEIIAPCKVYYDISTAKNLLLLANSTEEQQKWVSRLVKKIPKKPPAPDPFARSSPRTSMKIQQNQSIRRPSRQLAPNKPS

[9] = molecular target: RAC-gamma serine/threonine-protein kinase (Homo sapiens, UniProt Q9Y243); experiment: Selectivity interaction (Kinase panel (DSF assay)) EUB0001558a AKT3
RAC-gamma serine/threonine-protein kinase, sequence (Q9Y243 whole entry): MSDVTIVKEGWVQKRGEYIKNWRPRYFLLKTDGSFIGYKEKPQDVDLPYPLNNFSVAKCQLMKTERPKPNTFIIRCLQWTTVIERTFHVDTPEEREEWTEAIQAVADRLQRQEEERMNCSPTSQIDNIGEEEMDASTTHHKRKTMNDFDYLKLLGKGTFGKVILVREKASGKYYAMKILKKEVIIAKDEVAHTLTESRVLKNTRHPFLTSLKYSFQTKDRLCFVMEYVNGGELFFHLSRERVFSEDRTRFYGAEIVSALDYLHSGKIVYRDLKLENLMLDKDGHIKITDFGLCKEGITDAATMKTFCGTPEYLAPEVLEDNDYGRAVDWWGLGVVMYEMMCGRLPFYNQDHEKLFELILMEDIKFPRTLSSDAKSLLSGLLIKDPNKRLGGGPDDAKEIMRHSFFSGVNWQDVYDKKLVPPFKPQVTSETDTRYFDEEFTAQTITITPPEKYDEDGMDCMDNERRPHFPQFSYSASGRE

Phosphorylase b kinase gamma catalytic chain, skeletal muscle/heart isoform (Homo sapiens), sequence (Q16816 whole entry, looked up, canonical isoform): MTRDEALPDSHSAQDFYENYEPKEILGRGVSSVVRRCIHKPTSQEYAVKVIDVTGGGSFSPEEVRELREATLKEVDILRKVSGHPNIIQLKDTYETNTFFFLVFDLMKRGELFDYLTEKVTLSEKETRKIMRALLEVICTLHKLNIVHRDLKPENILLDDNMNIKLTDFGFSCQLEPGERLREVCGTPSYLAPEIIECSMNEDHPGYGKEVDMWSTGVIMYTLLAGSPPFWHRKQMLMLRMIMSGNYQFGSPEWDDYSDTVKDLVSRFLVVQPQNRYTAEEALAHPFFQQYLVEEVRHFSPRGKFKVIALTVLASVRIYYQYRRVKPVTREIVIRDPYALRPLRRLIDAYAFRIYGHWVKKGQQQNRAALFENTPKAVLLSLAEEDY

Structure (SMILES): COc1cc(Nc2nc(C)cc(-c3cnn4nc(OC)ccc34)n2)cc(C(F)(F)F)c1
% of control [1]: 85%

% of inhibition ([2]; at 0.01 µM): 0.5%
% of inhibition ([2]; at 0.04 µM): 6.6%
% of inhibition ([2]; at 0.2 µM): -14.2%
% of inhibition ([2]; at 1 µM): 6.3%
% of inhibition ([2]; at 5 µM): 19.6%
Structure (SMILES): CC[C@@H]1[C@H](F)C(=O)N[C@@H]1COc1nccc2cc(C(N)=O)c(OC)cc12 [ZIMLOVISERTIB]

% of inhibition [3]: 77%
Structure (SMILES): Cn1cc(Nc2nccc(N3CC4CCC(C3)N4C(=O)[C@@H]3CC3(F)F)n2)cn1

% of control [4]: 100%
Structure (SMILES): CCN(CC)CCCCNc1ncc2cc(-c3cc(OC)cc(OC)c3)c(NC(=O)NC(C)(C)C)nc2n1

Structure (SMILES): COCC(=O)NC/C=C/c1ccc2ncnc(Nc3ccc(Oc4ccc(C)nc4)c(C)c3)c2c1 [CP-724714]
% of control [5]: 80%

Structure (SMILES): Nc1cnc(N2CCc3cc(S(=O)(=O)Nc4c(F)cc(Cl)cc4F)cc(N4CCCC4=O)c32)nc1 [TP-020n]
% of inhibition [6]: -2.31%

Structure (SMILES): CNC(=O)Nc1ccc(-c2nc(N3CC4CCC(C3)O4)c3cnn(C4CCC5(CC4)OCCO5)c3n2)cc1
% of control [7]: 90%
% of inhibition [8]: 5%

Structure (SMILES): CC(C)(O)[C@H](F)CN1Cc2cc(NC(=O)c3cnn4cccnc34)c(N3CCOCC3)cc2C1=O
dTM [9]: 0.1 K
